# Measurements taken from patent publication US20220242853A1, “MODIFIED CYANINE DYES AND CONJUGATES THEREOF” (BRACCO IMAGING S.P.A., priority 2019, published 2022).
# Assays:
# [1] = Biodistribution and elimination by optical imaging after intravenous administration; format: in vivo, Balb/c nu/nu mice; conditions: male, Balb/c nu/nu, mouse, in vivo, iv
# Method: Biodistribution and elimination of the fluorescent agents of the invention was evaluated by optical imaging after intravenous administration in male Balb/c nu/nu mice, 6-10 weeks of age (Charles River Laboratories). Briefly, mice housed 4 per cage and fed with VRF1 (P) sterile diet (Special Diets Services Ltd) up to the end of the acclimation period (5 days). Then, AIN-76a rodent diet irradiated (Research Diets), a special diet that reduces auto-fluorescence, was used up to the end of the experiments. Imaging experiments were performed using the preclinical optical system IVIS Spectrum (Perkin Elmer).
# In vivo imaging was performed under gas anesthesia (Sevofluorane 6-8% in oxygen). Animals were intravenously injected with the compounds and imaged longitudinally at 30 min, 1 h, 2 h, 3 h, 4 h, 6 h, and 24 h post-administration. Thus, animals were euthanized by anesthesia overdose, and the main tissues and organs of interest were excised for ex vivo optical imaging. Regions of interest (ROIs) were drawn on the tissues of interest for each fluorescence image at every time point to evaluate signal intensity (expressed as Average adiant Efficiency). The ratio between the fluorescence signal in the muscle (background tissue) and excretory organs (kidney, liver) was then calculated to assess the contrast. The tissue half-life was calculated by fitting the fluorescence signal decay in the muscle with a bi-exponential decay equation model using GraphPad Prism Software (version 5 for Windows).
# [2] = target: T1, human serum albumin (HSA) (Homo sapiens, UniProt P02768); experiment: Binding affinity to human serum albumin (absorbance peak shift or ultrafiltration method); conditions: phosphate buffer, 25° C., one of the two methods; read-out: HSA affinity (KA) (converted)
# T1 construct: purchased Sigma Aldrich A9511
# Method: Binding affinity to human serum albumin (HSA; Sigma Aldrich, A9511) was measured using two methods, according to the level of binding affinity of the compounds.
# The first method, optimal for compounds which strongly interact with HSA, is based on the analysis of the absorbance spectrum peak shift after the incubation of the dye in solutions containing HSA. Briefly, the samples were incubated at a fixed concentration (1 μM) with HSA dilutions (1×10^−6-4×10^−4M), in phosphate buffer for 5 min in the spectrophotometer at 25° C. before measurements. The measure was performed at the maximum absorbance wavelength of the shifted peak.
# The second method, optimal for compound with low affinity for HSA, is based on measuring the variation of the absorbance of solutions containing the dye and various concentrations of HSA after ultrafiltration. Briefly, each compound was incubated at a fixed concentration (2 μM) with HSA dilutions (1×10^−6-4×10^−4 M), in phosphate buffer. The samples were centrifuged (10,000 g for 30 min at 25° C.) in a Microcon device (10 kDa MWCO, Amicon Ultra-0.5 Centrifugal Filter Unit with Ultracel-10 membrane, Millipore) and the absorbance measurements of the filtrates were obtained with the spectrophotometer at the maximum absorbance wavelength of the fluorophore.
# For both methods, the affinity constant (KA, M^−1) was calculated by fitting the raw data with the following formula:
# wherein ΔA/b=Absorbance measured (b=1 cm) KRL=KA calculated by regression analysis (curve fitting) Δε·Rt calculated by regression analysis (curve fitting) [L]=Albumin concentration
# In the first method, ΔA/b corresponds to the absorbance measured for each sample, whereas in the second method ΔA/b is obtained subtracting the absorbance of the control sample (dye without HSA) to the absorbance of each other sample.
# However, the measurement of the affinity constant is more precise when the suitable method is used as a function of the affinity level of the compound.
# HT-29 cells = experiment: Tumor uptake by optical imaging, subcutaneous human colorectal cancer model; format: in vivo, Athymic nude mice; conditions: iv 1 nmol, tumor vs muscle
# Method: Parallel experiments were performed in an animal model of human colorectal cancer (subcutaneous), using HT-29 cells, expressing low levels of integrin receptors. Briefly, the human colorectal adenocarcinoma cells HT-29 (ATCC, HTB-38) were cultured in McCoy's 5A medium supplemented with 10% foetal bovine serum, 2 mM glutamine, 100 IU/mL penicillin and 100 μg/mL streptomycin. Male Athymic nude mice, 4-6 weeks of age (Envigo), underwent subcutaneous implantation (right flank) of about 5 million cells suspended in 0.1 mL of serum-free medium. Mice were housed 4 per cage with food and water ad libitum. […] Then, AIN-76a rodent diet irradiated (Research Diets), a special diet that reduces auto-fluorescence, was used up to the end of the experiments. Tumor growth was monitored by longitudinal assessments using a caliper up to the target size of 300-600 mm^3 (3-4 weeks after cell implantation). […]
# In vivo imaging was performed under gas anesthesia (Sevofluorane 6-8% in oxygen). […] Regions of interest (ROIs) were drawn on the tissues of interest for each fluorescence image at every time point to evaluate signal intensity (expressed as Average Radiant Efficiency). The ratio between the fluorescence signal in the tumor and in the muscle (background tissue) was then calculated to assess the contrast.
# Detroit-562 cells = experiment: Tumor uptake by ex vivo optical imaging, orthotopic human head and neck cancer model; format: in vivo, Balb/c nu/nu mice; conditions: ex vivo tongue, 24 hours after iv 3 nmol/mouse
# Method: Parallel experiments were performed in an animal model of human head and neck cancer (orthotopic), using Detroit-562 cells, overexpressing in particular integrin receptor αvβ6. Briefly, the human pharyngeal carcinoma cells Detroit-562 (ATCC, CCL-138) were cultured in Eagle's Minimum Essential Medium (EMEM) supplemented with 10% Fetal Bovine Serum (FBS), 2 mM glutamine, 100 IU/mL penicillin, 100 μg/mL streptomycin. Male Balb/c nu/nu mice, 4-6 weeks of age (Charles River Laboratories), underwent orthotopic implantation in the anterior portion of the tongue of about 2.5 million cells suspended in 0.03 mL di EMEM. Mice were housed 4 per cage with food and water ad libitum. Animals were fed with VRF1 (P) sterile diet (Special Diets Services Ltd) up to the end of the acclimation period (5 days). Then, AIN-76a rodent diet irradiated (Research Diets), a special diet that reduces auto-fluorescence, was used up to the end of the experiments. Tumor growth was monitored by longitudinal assessments using a caliper up to the target size of 10-20 mm^3 (7-10 days after cell implantation).
# Imaging experiments were performed using the preclinical optical system IVIS Spectrum (Perkin Elmer). Animals were intravenously injected (lateral tail vein) with 3 nmol/mouse, at 24 hours post-administration were euthanized by anesthesia overdose, and the tongues were excised for ex vivo optical imaging. […]
# T1 sequence (P02768 25-609): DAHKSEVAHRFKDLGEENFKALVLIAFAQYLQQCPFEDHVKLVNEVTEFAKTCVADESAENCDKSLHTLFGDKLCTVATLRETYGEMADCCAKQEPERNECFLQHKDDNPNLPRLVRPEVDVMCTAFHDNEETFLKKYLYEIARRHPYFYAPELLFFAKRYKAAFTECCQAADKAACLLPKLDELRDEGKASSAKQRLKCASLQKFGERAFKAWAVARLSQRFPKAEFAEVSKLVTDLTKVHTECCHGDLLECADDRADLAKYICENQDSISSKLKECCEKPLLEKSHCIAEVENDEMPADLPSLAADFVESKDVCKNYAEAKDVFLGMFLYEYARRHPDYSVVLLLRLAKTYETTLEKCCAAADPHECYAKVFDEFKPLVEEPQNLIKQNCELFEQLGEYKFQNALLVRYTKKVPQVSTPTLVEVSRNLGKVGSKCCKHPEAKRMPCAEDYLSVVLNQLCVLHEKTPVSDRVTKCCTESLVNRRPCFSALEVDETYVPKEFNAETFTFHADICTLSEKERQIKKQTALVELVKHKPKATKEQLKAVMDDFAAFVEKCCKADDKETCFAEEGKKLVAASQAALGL
smiles,measurement,setting,value
CC(CC[N+]1=C(/C=C/C=C/C=C/C=C2/N(CCCCCC(=O)NCCCC[C@@H]3NC(=O)C(Cc4ccccc4)NC(=O)[C@H](CC(=O)O)NC(=O)CNC(=O)[C@H](CCCNC(=N)N)NC3=O)c3ccc(C(=O)NCC(O)C(O)C(O)C(O)CO)cc3C2(C)C)C(C)(C)c2cc(C(=O)NCC(O)C(O)C(O)C(O)CO)ccc21)S(=O)(=O)[O-] (stereo partly shown) [Compound 1],half-life,[1],< 1 h
same,Kd,[2],159 µM
same,Tumor-to-background ratio (TBR),HT-29 cells,1.2-1.5
same,Tumor-to-background contrast,Detroit-562 cells,high tumor-to-background contrast
